Data from US20150105252A1, “SUBSTITUTED PYRAZOLES AS HERBICIDES” (E I DU PONT DE NEMOURS AND COMPANY, priority 2013, published 2015).

Columns and labels:
barnyardgrass [1] = experiment: Test A preemergence; type: in vivo, Echinochloa crus-galli
Procedure, shortened: (§1)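 After sowing in a sand–loam mix, pots received compound preemergence by directed soil spray, or postemergence once plants reached the one- to two-leaf stage (2–10 cm). Formulation contained surfactant in a non-phytotoxic solvent. Injury was scored visually after ~10 greenhouse days, 0–100 scale.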

crabgrass, large [2] = experiment: Test A preemergence; type: in vivo, Digitaria sanguinalis
Procedure, shortened: as §1

foxtail, giant [3] = experiment: Test A preemergence; type: in vivo, Setaria faberii
Procedure, shortened: as §1

morningglory [4] = experiment: Test A preemergence; type: in vivo, Ipomoea spp.; conditions: for Morningglory plant response rating: 0 to 100 scale
Procedure, shortened: as §1

pigweed [5] = experiment: Test A preemergence; type: in vivo, Amaranthus retroflexus; conditions: for Pigweed plant response rating: 0 to 100 scale
Procedure, shortened: as §1

velvetleaf [6] = experiment: Test A preemergence; type: in vivo, Abutilon theophrasti; conditions: for Velvetleaf plant response rating: 0 to 100 scale
Procedure, shortened: as §1

wheat [7] = experiment: Test A preemergence; type: in vivo, Triticum aestivum; conditions: preemergence
Procedure, shortened: as §1

corn [8] = experiment: Test A preemergence; type: in vivo, Zea mays
Procedure, shortened: as §1

barnyardgrass [9] = experiment: Test A postemergence; type: in vivo, Echinochloa crus-galli; conditions: Postemergence
Procedure, shortened: as §1

crabgrass, large [10] = experiment: Test A postemergence; type: in vivo, Digitaria sanguinalis
Procedure, shortened: as §1

foxtail, giant [11] = experiment: Test A postemergence; type: in vivo, Setaria faberii
Procedure, shortened: as §1

morningglory [12] = experiment: Test A postemergence; type: in vivo, Ipomoea spp.
Procedure, shortened: as §1

pigweed [13] = experiment: Test A postemergence; type: in vivo, Amaranthus retroflexus
Procedure, shortened: as §1

velvetleaf [14] = experiment: Test A postemergence; type: in vivo, Abutilon theophrasti
Procedure, shortened: as §1

wheat [15] = experiment: Test A postemergence; type: in vivo, Triticum aestivum
Procedure, shortened: as §1

corn [16] = experiment: Test A postemergence; type: in vivo, Zea mays
Procedure, shortened: as §1

rice = experiment: Test B flood; type: in vivo, Oryza sativa; conditions: 250 g ai/ha, visual rating on 0 to 100 scale (0 no effect, 100 complete control), 13 to 15 days
Procedure, shortened: (§2)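 Greenhouse assay lasting 13 to 15 days. Treatment was into water flooding pots 3 cm deep, at the 2-leaf stage, with that level sustained afterwards. Scores compare treated with control plants visually, 100 denoting complete control and 0 no effect; a dash marks no test result.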

sedge, umbrella = experiment: Test B flood; type: in vivo, Cyperus difformis; conditions: 250 g ai/ha, visual rating on 0 to 100 scale (0 no effect, 100 complete control), 13 to 15 days
Procedure, shortened: as §2

ducksalad = experiment: Test B flood; type: in vivo, Heteranthera limosa; conditions: 250 g ai/ha, visual rating on 0 to 100 scale (0 no effect, 100 complete control), 13 to 15 days
Procedure, shortened: as §2

barnyardgrass [17] = experiment: Test B flood; type: in vivo, Echinochloa crus-galli; conditions: 250 g ai/ha, visual rating on 0 to 100 scale (0 no effect, 100 complete control), 13 to 15 days
Procedure, shortened: as §2

[18] = preemergence, 125 g ai/ha, visual injury approx. 10 days after treatment
[19] = preemergence, 500 g ai/ha, visual injury after approx. 10 days, 0 to 100 scale (0 no effect, 100 complete control)
[20] = 125 g ai/ha, 0 to 100 scale, 0 no effect, 100 complete control
[21] = Postemergence, 125 g ai/ha, 0 to 100 scale, 0 no effect, 100 complete control
[22] = Postemergence, 500 g ai/ha, 0 to 100 scale (0 no effect, 100 complete control)
[23] = Preemergence, 500 g ai/ha, 0 to 100 scale, 0 no effect, 100 complete control
[24] = preemergence, 125 g ai/ha, visual injury, 0 to 100 scale, approx. 10 days
[25] = Preemergence, 500 g ai/ha, 0 no effect, 100 complete control
[26] = preemergence, 125 g ai/ha, visual injury, approx. 10 days
[27] = Postemergence, 500 g ai/ha, visual rating after approx. 10 days, 0 to 100 scale (0 no effect, 100 complete control)
[28] = postemergence, 125 g ai/ha, about 10 days, visual rating on 0 to 100 scale (0 no effect, 100 complete control)

Q: With `CCCNC(=O)c1cc(CC)n(Oc2cccc(C(F)(F)F)c2)n1` [Compound 216] as the compound, how does the “Barnyardgrass plant response rating (0 to 100 scale, 0 is no effect, 100 is complete control)” value (barnyardgrass [1]; [18]) read?
A: 0

Q: And the “Barnyardgrass plant response rating” value (barnyardgrass [1]; [19])?
A: 80

Q: What about the “Crabgrass, Large plant response rating (0 to 100 scale)” value (crabgrass, large [2]; [18]) of the same compound?
A: 60

Q: What about the “Crabgrass, Large plant response rating” value (crabgrass, large [2]; [19]) of the same compound?
A: 90

Q: And the “Foxtail, Giant plant response rating (0 to 100 scale)” value (foxtail, giant [3]; [18])?
A: 10

Q: And the “Foxtail, Giant plant response rating” value (foxtail, giant [3]; [19])?
A: 40

Q: And the “Morningglory plant response rating (0 to 100 scale)” value (morningglory [4]; [18])?
A: 0

Q: And the “Pigweed plant response rating (0 to 100 scale)” value (pigweed [5]; [18])?
A: 0

Q: And the “Velvetleaf plant response rating (0 to 100 scale)” value (velvetleaf [6]; [18])?
A: 0

Q: And the “Wheat plant response rating (0 to 100 scale)” value (wheat [7]; 125 g ai/ha, visual injury approx. 10 days after treatment)?
A: 0

Q: What about the “Corn plant response rating (0 to 100 scale)” value (corn [8]; [18]) of the same compound?
A: 0

Q: What about the “Corn plant response rating” value (corn [8]; [19]) of the same compound?
A: 10

Q: And the “Barnyardgrass plant response rating” value (barnyardgrass [9]; [20])?
A: 0

Q: And the “Barnyardgrass plant response rating” value (barnyardgrass [9]; 500 g ai/ha, 0 to 100 scale (0 no effect, 100 complete control))?
A: 70

Q: And the “Crabgrass, Large plant response rating” value (crabgrass, large [10]; [21])?
A: 20

Q: What about the “Crabgrass, Large plant response rating” value (crabgrass, large [10]; [22]) of the same compound?
A: 70

Q: And the “Foxtail, Giant plant response rating” value (foxtail, giant [11]; [21])?
A: 0

Q: What about the “Foxtail, Giant plant response rating” value (foxtail, giant [11]; [22]) of the same compound?
A: 40

Q: And the “Morningglory plant response rating” value (morningglory [12]; [21])?
A: 20

Q: What about the “Morningglory plant response rating” value (morningglory [12]; [22]) of the same compound?
A: 70

Q: What about the “Pigweed plant response rating” value (pigweed [13]; [21]) of the same compound?
A: 20

Q: And the “Pigweed plant response rating” value (pigweed [13]; [22])?
A: 30

Q: What about the “Velvetleaf plant response rating” value (velvetleaf [14]; [21]) of the same compound?
A: 0

Q: What about the “Velvetleaf plant response rating” value (velvetleaf [14]; [22]) of the same compound?
A: 40

Q: What about the “Wheat plant response rating” value (wheat [15]; [21]) of the same compound?
A: 0

Q: And the “Wheat plant response rating” value (wheat [15]; [22])?
A: 0

Q: And the “Corn plant response rating” value (corn [16]; [21])?
A: 0

Q: And the “Corn plant response rating” value (corn [16]; [22])?
A: 50

Q: What about the “Plant response rating, Rice” value (rice) of the same compound?
A: 0

Q: And the “Plant response rating, Sedge, Umbrella” value (sedge, umbrella)?
A: 30

Q: And the “Plant response rating, Ducksalad” value (ducksalad)?
A: 20

Q: And the “Plant response rating, Barnyardgrass” value (barnyardgrass [17])?
A: 0

Q: For `Cc1cc(C(=O)NCC(F)(F)F)nn1Oc1ccnc(C(F)(F)F)c1` [Compound 79], which “Barnyardgrass plant response rating” value (barnyardgrass [1]; [23]) is on record?
A: 70

Q: What about the “Barnyardgrass plant response rating” value (barnyardgrass [1]; [24]) of the same compound?
A: 10

Q: What about the “Crabgrass, Large plant response rating” value (crabgrass, large [2]; [23]) of the same compound?
A: 90

Q: And the “Crabgrass, Large plant response rating” value (crabgrass, large [2]; [24])?
A: 60

Q: And the “Foxtail, Giant plant response rating” value (foxtail, giant [3]; [23])?
A: 90

Q: What about the “Foxtail, Giant plant response rating” value (foxtail, giant [3]; [24]) of the same compound?
A: 10

Q: And the “Morningglory plant response rating” value (morningglory [4]; [25])?
A: 50

Q: What about the “Morningglory plant response rating” value (morningglory [4]; [26]) of the same compound?
A: 0

Q: And the “Pigweed plant response rating” value (pigweed [5]; [25])?
A: 100

Q: And the “Pigweed plant response rating” value (pigweed [5]; [26])?
A: 30

Q: What about the “Velvetleaf plant response rating” value (velvetleaf [6]; [25]) of the same compound?
A: 60

Q: What about the “Velvetleaf plant response rating” value (velvetleaf [6]; [26]) of the same compound?
A: 0

Q: And the “Wheat plant response rating” value (wheat [7]; 125 g ai/ha, visual injury, 0 to 100 scale, approx. 10 days)?
A: 0

Q: And the “Wheat plant response rating” value (wheat [7]; 500 g ai/ha, visual injury after approx. 10 days, 0 to 100 scale (0 no effect, 100 complete control))?
A: 20

Q: And the “Corn plant response rating” value (corn [8]; [23])?
A: 0

Q: And the “Corn plant response rating” value (corn [8]; [24])?
A: 0

Q: What about the “Barnyardgrass plant response rating” value (barnyardgrass [9]; [20]) of the same compound?
A: 0

Q: What about the “Barnyardgrass plant response rating” value (barnyardgrass [9]; 500 g ai/ha, visual rating after approx. 10 days, 0 to 100 scale (0 no effect, 100 complete control)) of the same compound?
A: 30

Q: And the “Crabgrass, Large plant response rating” value (crabgrass, large [10]; [27])?
A: 60

Q: And the “Crabgrass, Large plant response rating” value (crabgrass, large [10]; [28])?
A: 20

Q: And the “Foxtail, Giant plant response rating” value (foxtail, giant [11]; [27])?
A: 30

Q: And the “Foxtail, Giant plant response rating” value (foxtail, giant [11]; [28])?
A: 10

Q: What about the “Morningglory plant response rating” value (morningglory [12]; [27]) of the same compound?
A: 70

Q: What about the “Morningglory plant response rating” value (morningglory [12]; [28]) of the same compound?
A: 30

Q: And the “Pigweed plant response rating” value (pigweed [13]; [27])?
A: 60

Q: And the “Pigweed plant response rating” value (pigweed [13]; [28])?
A: 40

Q: What about the “Velvetleaf plant response rating” value (velvetleaf [14]; [27]) of the same compound?
A: 50

Q: What about the “Velvetleaf plant response rating” value (velvetleaf [14]; [28]) of the same compound?
A: 40

Q: What about the “Wheat plant response rating” value (wheat [15]; [27]) of the same compound?
A: 20

Q: And the “Wheat plant response rating” value (wheat [15]; [28])?
A: 0

Q: What about the “Corn plant response rating” value (corn [16]; [27]) of the same compound?
A: 10

Q: And the “Corn plant response rating” value (corn [16]; [28])?
A: 10

Q: What about the “Plant response rating, Rice” value (rice) of the same compound?
A: 0

Q: And the “Plant response rating, Sedge, Umbrella” value (sedge, umbrella)?
A: 0

Q: What about the “Plant response rating, Ducksalad” value (ducksalad) of the same compound?
A: 0

Q: What about the “Plant response rating, Barnyardgrass” value (barnyardgrass [17]) of the same compound?
A: 0
